In US6861554B2, “Creatine salt having enhanced nutritional and therapeutic efficacy and compositions containing same” (Biosalts s.r.l., priority 2001, dated 2005):

How the values were obtained:
[1] = tested on: muscle cells; experiment: increase in glucose uptake by the muscle cells with respect to insulin; type: cell-based
[2] = stability and hygroscopicity of the salt; type: physicochemical

Molecule | Glucose uptake (percentage of increase in the glucose uptake by the muscle cells with respect to insulin) ([1]; 2.5 grams of substance) | hygroscopicity [2] | stability [2] | Glucose uptake (percentage of increase in the glucose uptake by the muscle cells with respect to insulin) ([1]; 5.0 grams of substance)
CN(CC(=O)O)C(=N)N.O [Creatine monohydrate, creatine monohydrate] | 1-2% | – | – | –
NCCS(=O)(=O)O [Taurine, 2-aminoethanesulphonic acid] | 15-18% | – | – | –
Creatine Taurinate | – | non hygroscopic | stable | 25-28%
